Test results reported in patent US20250009742A1 (priority 2021, published 2025).

What was measured:
[1] = Cell viability assay (EZ-Cytox), cytotoxicity; type: cell-based; conditions: human, HepAD38 cells; for viability at 65 h, 100 µM: read-out: Cytotoxicity % Livability (@100 μM)
Protocol: HepAD38 cells were cultured for 2 days in Dulbecco's Modified Eagle's medium (Welgene, LM001-05) supplemented with 10% FBS without tetracycline. […] After 65 hours of treatment, viability was measured using EZ-Cytox cell viability assay kit (Daeil Lab Service) according to the manufacturer's instructions. The absorbance was measured at 450 nm using a spectrophotometer (Spark, Tecan).

intracellular HBV DNA = test: Real-time PCR for intracellular HBV DNA in HepAD38 cells; type: cell-based; conditions: Hepatitis B virus, HePAD38, 65 h, 65 hours treatment
Protocol: HepAD38 cells were cultured in DMEM medium (Welgene) supplemented with 200 unit/mL penicillin, 200 μg/mL streptomycin, and 10% FBS. During maintenance and passage, the cells were cultured together with 0.4 μg/mL tetracycline. Two days before the treatment with compounds for inducing HBV replication was started, the medium was replaced with a tetracycline-free complete growth medium. […]
HepAD38 cells were treated with a compound for 65 hours and then recovered, and intracellular HBV DNA was extracted therefrom according to the protocol in the DNeasy Blood & Tissue Kit (Qiagen). The primers and probes used to quantify HBV DNA were 5′-[…]-3′, 5′-[…]-3′, and 5′-/56-FAM/TGT CCT GGT/ZEN/TAT CGC TGG ATG TGT CT/3IABkFQ/-3′. The HBV DNA was amplified by real-time PCR assay using LightCycler 480 (Roche) (J. Virol., 2018, 92(16):e00339-18). All of the processes were confirmed in duplicate.

SMILES | CC50 at 65 h [1] | viability at 65 h, 100 µM [1] | IC50 (intracellular HBV DNA)
N#Cc1cncc(N(Cc2n[nH]c3c2CCCO3)C(=O)Nc2ccc(F)c(Cl)c2)c1 [Example 120, 3-(3-chloro-4-fluorophenyl)-1-(5-cyanopyridin-3-yl)-1-((1,4,5,6-tetrahydropyrano[2,3-c]pyrazol-3-yl)methyl)urea] | > 100 µM | 92% | 0.095 µM
COc1cc(N(Cc2cc(C(F)F)[nH]n2)C(=O)Nc2ccc(F)c(Cl)c2)cnn1 [Example 99, 3-(3-chloro-4-fluorophenyl)-1-((5-(difluoromethyl)-1H-pyrazol-3-yl)methyl)-1-(6-methoxypyridazin-4-yl)urea] | > 100 µM | 83.4% | 0.89 µM
COc1ncc(N(Cc2cc(C(F)(F)F)[nH]n2)C(=O)Nc2ccc(C(F)F)c(F)c2)cn1 [Example 206, 3-(4-(difluoromethyl)-3-fluorophenyl)-1-(2-methoxypyrimidin-5-yl)-1-((5-(trifluoromethyl)-1H-pyrazol-3-yl)methyl)urea] | > 100 µM | 89.6% | 0.18 µM
N#Cc1cc(N(Cc2n[nH]c3c2CCOC3)C(=O)Nc2ccc(F)c(Cl)c2)ccn1 [Example 128, 3-(3-chloro-4-fluorophenyl)-1-(2-cyanopyridin-4-yl)-1-((1,4,5,7-tetrahydropyrano[3,4-c]pyrazol-3-yl)methyl)urea] | > 100 µM | 65.9% | 0.34 µM
CC(=O)c1ccc(N(Cc2n[nH]c3c2CCCO3)C(=O)Nc2ccc(F)c(Cl)c2)cn1 [Example 20, 1-(6-acetylpyridin-3-yl)-3-(3-chloro-4-fluorophenyl)-1-((1,4,5,6-tetrahydropyrano[2,3-c]pyrazol-3-yl)methyl)urea] | > 100 µM |  | > 1.1 µM
COc1ncc(N(Cc2cc(C(F)(F)F)[nH]n2)C(=O)NC23CC(Cl)(C2)C3)cn1 [Example 6, 3-(3-chlorobicyclo[1.1.1]pentan-1-yl)-1-(2-methoxypyrimidin-5-yl)-1-((5-(trifluoromethyl)-1H-pyrazol-3-yl)methyl)urea] | > 100 µM | 100% | > 1.1 µM
COc1ccc(N(Cc2nn(CCOC3CCCCO3)c3c2CCC3)C(=O)Nc2ccc(F)c(Cl)c2)cn1 (stereo not shown) [Example 66, 3-(3-chloro-4-fluorophenyl)-1-(6-methoxypyridin-3-yl)-1-((1-(2-(tetrahydro-2H-pyran-2-yloxy)ethyl)-1,4,5,6-tetrahydrocyclopenta[c]pyrazol-3-yl)methyl)urea] | 81.9 µM |  | > 0.3 µM
COc1ncc(N(Cc2n[nH]c(C(F)F)c2Br)C(=O)Nc2ccc(F)c(C(F)F)c2)cn1 [Example 197, 1-((4-bromo-5-(difluoromethyl)-1H-pyrazol-3-yl)methyl)-3-(3-(difluoromethyl)-4-fluorophenyl)-1-(2-methoxypyrimidin-5-yl)urea] | 79.1 µM | 11.5% | 0.019 µM
CC(=O)c1ccc(N(Cc2n[nH]c3c2CCOC3)C(=O)Nc2ccc(F)c(Cl)c2)cn1 [Example 21, 1-(6-acetylpyridin-3-yl)-3-(3-chloro-4-fluorophenyl)-1-((1,4,5,7-tetrahydropyrano[3,4-c]pyrazol-3-yl)methyl)urea] | > 100 µM |  | > 1.1 µM
O=C(Nc1ccc(F)c(Cl)c1)N(Cc1n[nH]c2c1CCCO2)c1cc[nH]n1 [Example 135, 3-(3-chloro-4-fluorophenyl)-1-(1H-pyrazol-3-yl)-1-((1,4,5,6-tetrahydropyrano[2,3-c]pyrazol-3-yl)methyl)urea] | > 100 µM |  | 0.2 µM
CC(C)(O)c1cc(N(Cc2n[nH]c3c2CCOC3)C(=O)Nc2ccc(F)c(Cl)c2)on1 [Example 115, 3-(3-chloro-4-fluorophenyl)-1-(3-(2-hydroxypropan-2-yl)isoxazol-5-yl)-1-((1,4,5,7-tetrahydropyrano[3,4-c]pyrazol-3-yl)methyl)urea] | > 100 µM | 84.1% | > 1.1 µM
CCOC=Cc1c(CN(C(=O)Nc2ccc(F)c(Cl)c2)c2ccc(OC)nc2)n[nH]c1C(F)(F)F [Example 83, 3-(3-chloro-4-fluorophenyl)-1-((4-(2-ethoxyvinyl)-5-(trifluoromethyl)-1H-pyrazol-3-yl)methyl)-1-(6-methoxypyridin-3-yl)urea] | > 100 µM | 95.1% | > 1.1 µM
COc1cc(N(Cc2cc(C(F)(F)F)[nH]n2)C(=O)Nc2ccc(F)c(C#N)c2)cnn1 [Example 163, 3-(3-cyano-4-fluorophenyl)-1-(6-methoxypyridazin-4-yl)-1-((5-(trifluoromethyl)-1H-pyrazol-3-yl)methyl)urea] | > 100 µM | 99% | 0.007 µM
CC(C)(O)c1cc(N(Cc2n[nH]c3c2CCCO3)C(=O)Nc2ccc(F)c(Cl)c2)ccn1 [Example 113, 3-(3-chloro-4-fluorophenyl)-1-(2-(2-hydroxypropan-2-yl)pyridin-4-yl)-1-((1,4,5,6-tetrahydropyrano[2,3-c]pyrazol-3-yl)methyl)urea] | > 100 µM | 102% | > 1.1 µM
COc1ccc(N(Cc2n[nH]c(C(F)(F)F)c2C)C(=O)Nc2ccc(F)c(Cl)c2)cn1 [Example 78, 3-(3-chloro-4-fluorophenyl)-1-(6-methoxypyridin-3-yl)-1-((4-methyl-5-(trifluoromethyl)-1H-pyrazol-3-yl)methyl)urea] | > 100 µM | 94% | 0.0303 µM
COc1ncc(N(Cc2cc(C(F)F)[nH]n2)C(=O)Nc2ccc(F)c(C#N)c2)cn1 [Example 155, 3-(3-cyano-4-fluorophenyl)-1-((5-(difluoromethyl)-1H-pyrazol-3-yl)methyl)-1-(2-methoxypyrimidin-5-yl)urea] | > 100 µM | 97% | 0.035 µM
Cn1ccc(N(Cc2n[nH]c3c2CCCO3)C(=O)Nc2ccc(F)c(Cl)c2)n1 [Example 25, 3-(3-chloro-4-fluorophenyl)-1-(1-methyl-1H-pyrazol-3-yl)-1-((1,4,5,6-tetrahydropyrano[2,3-c]pyrazol-3-yl)methyl)urea] | > 100 µM | 100% | > 1.1 µM
COc1ncc(N(Cc2n[nH]c(C(F)(F)F)c2CC(C)O)C(=O)Nc2ccc(F)c(C(F)F)c2)cn1 (stereo not shown) [Example 199, 3-(3-(difluoromethyl)-4-fluorophenyl)-1-((4-(2-hydroxypropyl)-5-(trifluoromethyl)-1H-pyrazol-3-yl)methyl)-1-(2-methoxypyrimidin-5-yl)urea] | > 100 µM | 95.7% | 0.75 µM
COc1ncc(N(Cc2cc(C(F)(F)F)[nH]n2)C(=O)Nc2ccnc(C#N)c2)cn1 [Example 146, 3-(2-cyanopyridin-4-yl)-1-(2-methoxypyrimidin-5-yl)-1-((5-(trifluoromethyl)-1H-pyrazol-3-yl)methyl)urea] | > 100 µM | 112% | 0.12 µM
COc1ncc(N(Cc2n[nH]c(C(F)F)c2C(C)(C)O)C(=O)Nc2ccc(F)c(Cl)c2)cn1 [Example 92, 3-(3-chloro-4-fluorophenyl)-1-((5-(difluoromethyl)-4-(2-hydroxypropan-2-yl)-1H-pyrazol-3-yl)methyl)-1-(2-methoxypyrimidin-5-yl)urea] | > 100 µM |  | > 1.1 µM
Cc1cc(N(Cc2n[nH]c3c2CCCO3)C(=O)Nc2ccc(F)c(Cl)c2)no1 [Example 26, 3-(3-chloro-4-fluorophenyl)-1-(5-methylisoxazol-3-yl)-1-((1,4,5,6-tetrahydropyrano[2,3-c]pyrazol-3-yl)methyl)urea] | > 100 µM | 93% | > 1.1 µM
COC12CC(N(Cc3cc(C(F)(F)F)[nH]n3)C(=O)Nc3ccc(F)c(Cl)c3)(C1)C2 [Example 105, 3-(3-chloro-4-fluorophenyl)-1-(3-methoxybicyclo[1.1.1]pentan-1-yl)-1-((5-(trifluoromethyl)-1H-pyrazol-3-yl)methyl)urea] | 55.8 µM | 3.5% | 0.034 µM
COC12CC(N(Cc3cc(C(F)(F)F)[nH]n3)C(=O)Nc3cccc(C(F)F)c3)(C1)C2 [Example 181, 3-(3-(difluoromethyl)phenyl)-1-(3-methoxybicyclo[1.1.1]pentan-1-yl)-1-((5-(trifluoromethyl)-1H-pyrazol-3-yl)methyl)urea] | > 100 µM | 64.9% | 0.13 µM
COc1ncc(N(Cc2cc(C(F)(F)F)[nH]n2)C(=O)Nc2cc(C(F)F)c(F)cn2)cn1 [Example 192, 3-(4-(difluoromethyl)-5-fluoropyridin-2-yl)-1-(2-methoxypyrimidin-5-yl)-1-((5-(trifluoromethyl)-1H-pyrazol-3-yl)methyl)urea] | > 100 µM | 104% | 0.059 µM
COC12CC(N(Cc3cc(C(F)(F)F)[nH]n3)C(=O)Nc3ccc(F)c(C(F)F)c3)(C1)C2 [Example 213, 3-(3-(difluoromethyl)-4-fluorophenyl)-1-(3-methoxybicyclo[1.1.1]pentan-1-yl)-1-((5-(trifluoromethyl)-1H-pyrazol-3-yl)methyl)urea] | > 100 µM | 63.1% | 0.016 µM
